# Data: patent US6086918A, “Oral peptide pharmaceutical products” (Unigene Laboratories, Inc., priority 1998, dated 2000)
# Key:
# [1] = Pharmacokinetics of oral calcitonin (10.5 mg) in humans; format: in vivo, human; details: 10 milligrams of salmon calcitonin alone administered to humans
# Experimental: The capsules were coated for 20 min with hydroxypropylmethylcellulose phthalate 50 in a pan coater and stored at 4° C. Fasted subjects were given 1 capsule followed by a glass of orange juice in the morning of the study. Samples of blood were taken 15 minutes before taking the capsules and at the indicated times after taking the calcitonin capsule. The concentration of calcitonin in blood was determined by competitive radioimmunoassay.
# [2] = Blood levels of salmon calcitonin after direct injection of active components into duodenum, ilium or colon; format: in vivo; details: active components injected directly into the duodenum
# Text: The acid is believed to lower the local intestinal pH (where the active agent has been released) to levels below the optimal range for many intestinal proteases. This decrease in pH reduces the proteolytic activity of the intestinal proteases, thus affording protection to the peptide from potential degradation. The activity of these proteases is diminished by the temporarily acidic environment provided by the invention. It is preferred that sufficient acid be provided that local intestinal pH is lowered temporarily to 5.5 or below, preferably 4.7 or below and more preferably 3.5 or below. The sodium bicarbonate test described below (in the section captioned "the pH-Lowering Agent") is indicative of the required acid amount. […] The absorption enhancers of the invention synergistically promote peptide absorption into the blood while conditions of reduced proteolytic activity prevail.
# [3] = Applicant's internal comparative tests of oral formulation, sCT versus PTH; format: in vivo; details: oral formulation of the invention
# [4] = cited from earlier work
smiles,measurement,setting,value
CC(C)C[C@H](NC(=O)[C@H](CCCCN)NC(=O)CNC(=O)[C@H](CC(C)C)NC(=O)[C@@H](NC(=O)[C@@H]1CSSC[C@H](N)C(=O)N[C@@H](CO)C(=O)N[C@@H](CC(N)=O)C(=O)N[C@@H](CC(C)C)C(=O)N[C@@H](CO)C(=O)N[C@@H]([C@@H](C)O)C(=O)N1)C(C)C)C(=O)N[C@@H](CO)C(=O)N[C@@H](CCC(N)=O)C(=O)N[C@@H](CCC(=O)O)C(=O)N[C@@H](CC(C)C)C(=O)N[C@@H](Cc1c[nH]cn1)C(=O)N[C@@H](CCCCN)C(=O)N[C@@H](CC(C)C)C(=O)N[C@@H](CCC(N)=O)C(=O)N[C@H](C(=O)N[C@@H](Cc1ccc(O)cc1)C(=O)N1CCC[C@H]1C(=O)N[C@@H](CCCNC(=N)N)C(=O)N[C@H](C(=O)N[C@@H](CC(N)=O)C(=O)N[C@H](C(=O)NCC(=O)N[C@@H](CO)C(=O)NCC(=O)N[C@H](C(=O)N1CCC[C@H]1C(N)=O)[C@@H](C)O)[C@@H](C)O)[C@@H](C)O)[C@@H](C)O [Salmon calcitonin],serum levels of salmon calcitonin,[1],no detectable serum levels
same,Tmax for blood levels of salmon calcitonin,[2],5 to 15 min
same,bioavailability compared with parathyroid hormone,[3],significantly exceeds that of parathyroid hormone
same,peak levels at which some patients report gastrointestinal distress,[4]; in vivo,≥ 200 picograms per milliliter
same,detectable blood levels after injection,[4]; injection at conventional dosages,no detectable blood levels more than two hours after injection
same,peak levels at which effective against osteoporosis,"[4]; nasal, 200 International units",≥ 10 picograms per milliliter
same,half-life,[4]; subcutaneous administration in man,20 to 40 min
same,peak serum concentration,"[4]; subcutaneous, 100 International units",about 250 picograms per milliliter
